Results published in patent publication US20250332326A1, “METHOD OF GENERATING 3D POROUS HYBRID PROTEIN NANOSCAFFOLD” (Rutgers, The State University of New Jersey, priority 2024, published 2025).

Key:
[1] = test system: LPS-stimulated THP-1-derived macrophages; assay: qRT-PCR of inflammatory genes in LPS-stimulated macrophages co-cultured with scaffolds; assay type: cell-based, human; settings: Transwell system, 50, 100, 200 μg/mL BETi loading
Method: THP-1 monocytes were purchased from ATCC® and cultured using standard protocol provided by the vendor (10% FBS in 1640 RPMI basal media supplemented with […] beta-mercaptoethanol). Media was refreshed every other day. THP-1 monocytes were cultured at a density of 100,000 to 500,000 cells per mL. When they proliferate above the density, cells were centrifuged down for media change. To convert suspension culture of THP-1 monocytes into adherent macrophages, 200 ng/ml of phorbol myristate acetate (PMA) was added into the media then split into 24 well plates at designated density (100,000 per well). PMA was treated for 1-3 days then fresh growth media without PMA was added. To stimulate the macrophages, 1,000 ng/mL lipopolysaccharide (LPS, Sigma Aldrich) was included in the media for 4 hours. Macrophages were converted from THP-1 monocytes through PMA activation. Then different scaffold conditions, including chitosan nanoscaffold, 3D-PHP nanoscaffold, and control (PBS only), as well as 3D-PHP nanoscaffold loaded with low (50 μg), medium (100 μg) and high (200 μg) dosages of BETi (JQ-1 from Tocris) drugs were added into the macrophage cultured followed by the addition of 1 μg/mL LPS for stimulation of macrophages. […] Cells were lysed with Trizol®, and then the lysates were stored at −80° C. until ready for use. […]

[2] = test system: rat nucleotomy disc injury model; assay: Rat nucleotomy disc injury model, histological and MRI analysis 6 WPI; assay type: in vivo
Method: Rats were anesthetized by injection of 2 mg/kg midazolam and 0.15 mg/kg medetomidine and butorphanol tartrate. After rats reached deep anesthesia, which was confirmed by tail pinching, posterior midline incision was performed at the Co6-7 level to expose the intervertebral disc. A no. 11 scalpel was used for the incision of posterior AF and the longitudinal cut was around 2 mm. […] After the nucleotomy, nanoscaffolds were pushed into the empty space using a micropipette tip. As controls, PBS was injected into the empty space after the nucleotomy. A heating pad was provided underneath the rats throughout the procedure and the rats were observed during recovery from the anesthesia.
MRI was performed on rats 6 WPI using a Bruker BioSpec (9.4 T) MRI scanner in order to investigate the regeneration of discs after the nucleotomy, which can be quantified by the signal intensities and water content through T2-weighted MRI. In the MRI study, time-to-repetition was set as 5,000 ms; time-toecho was set to 30 ms; and coronal axial planes were imaged for the rat discs. MRI index and signal intensities were used for the calculation of degree of damage of coccygeal disc tissues. Region of interest (ROI) was defined as the higher intensity area in the coronal plane and ROI was quantified using Fiji (Image J). MRI index was measured with blind tests by two independent observers.
At 6 WPI, animals were all sacrificed and disc tissues were harvested and fixed using 10% buffered formalin for one week. Decalcification was then performed using Rapid Cal Immuno™ (BBC biochemical) for another 2 weeks. Disc tissues were then paraffin-embedded and sectioned in the coronal directions with a Leica microtome. After dewaxing, rehydration, and permeabilization by methanol, H&E, immunohistofluorescent, and Safranin-O staining were performed on different sections. For H&E staining, tissue sections were stained in a solution with Mayer's Hematoxylin for 5 minutes then washed with water and counterstained in alcoholic solution of eosin for another minute without rinsing. […] For the Safranin-O staining, tissues were stained for 10 minutes by Weigert's iron hematoxylin solution followed by extensive washing with water. Then fast green solution was used for the second staining for 5 minutes followed by brief rinsing with 1% acetic acid solution and then stained with 0.1% Safranin-O solution. Afterwards, tissues were dehydrated and cleared using identical protocol as mentioned in the H&E staining. Safranin-O staining score was based on an 8-point scale previous used for IVD tissue analysis, and if no degenerative features were found a zero score was assigned. For the immunohistofluorescent and immunohistochemistry staining of inflammatory (e.g., MMP13 and IL1β), ECM (aggrecan, Collagen II) and pain (e.g., CGRP) markers, disc tissues with fixation and decalfication were first dewaxed, sectioned into 10 μm sections, and stained with primary antibodies followed by 24 hours incubation. After washing with PBS containing 0.1% Tween 20, the secondary antibodies were added and incubated for 2 hours. Finally, the nucleus was stained with DAPI for 15 minutes. Sections were then examined under a fluorescent or colorimetric microscope with a Zeiss 880 confocal microscope and Olympus microscope, respectively. ImageJ was used for quantification in an automatic manner.

**Q.** `Cc1sc2c(c1C)C(c1ccc(Cl)cc1)=N[C@@H](CC(=O)OC(C)(C)C)c1nnc(C)n1-2` [BETi, JQ1] was tested. Which “inflammatory responses (pro- and anti-inflammatory gene expression)” value [1] did it give?
**A.** Its value is “significantly lowered the inflammatory responses”.

**Q.** What about the “IL-1β expression (positive area, immunostaining)” value [2] of the same compound?
**A.** The value was “did not induce a significant reduction”.

**Q.** And the “MMP-13 levels (immunostaining)” value [2]?
**A.** The value was “did not suppress”.

**Q.** What about the “CGRP signals (pain marker, positive area ratio)” value ([2]; compared to injury alone) of the same compound?
**A.** Its value is “considerably less reduction”.

**Q.** What about the “disc integrity / healthy disc tissue (H&E staining, MRI index)” value ([2]; implanted or injected on day of nucleotomy) of the same compound?
**A.** The value was “slightly improved the restoration of the disc structure”.

**Q.** And the “up-regulation of Collagen II and aggrecan” value ([2]; result in words)?
**A.** Its value is “did not result in noticeable up-regulation”.
